Laboratory results from patent publication US20150190416A1, “FILAGGRIN PRODUCTION PROMOTER, THERAPEUTIC AGENT FOR DISEASES ASSOCIATED WITH REDUCTION IN PRODUCTION OF FILAGGRIN, AND METHOD FOR SCREENING FOR SAID THERAPEUTIC AGENT” (KYOTO UNIVERSITY, priority 2012, published 2015).

How the values were obtained:
FLG promoter = test: Transcription-activating effect on FLG promoter, luciferase assay in NHEK cells (Example 1); assay type: cell-based, human; conditions: 1 μM (Comparative Compound 2: 1 μM or 0.1 μM), 3 days
Protocol: In this example, the transcription activity on FLG promoter of an N-quinolylbenzamide derivative (Compound 1) was confirmed by using neonatal normal human epidermal keratinocytes (NHEK cells). The transcription activity of the FLG promoter was measured by luciferase assay.
1) 1.2×10^5 cells/ml of NHEK cells (KURABO INDUSTRIES LTD.) were plated on a 96-well plate at 80 μl/well (9.6×10^3 cells/well), and 100 μl of a culture medium containing a medium for proliferating normal human epidermal keratinocytes (HuMedia-KG2, KURABO INDUSTRIES LTD.) supplemented with human epidermal growth factor (hEGF) (0.1 ng/ml), insulin (10 μg/ml), hydrocortisone (0.5 μg/ml), gentamycin (50 μg/ml), amphotericin B (50 ng/ml), and bovine brain pituitary extract (BPE) (0.4%, v/v) were added to the plate, and the cells were cultured under the conditions of 37° C. and 5% CO2. […]
4) 3 days after the addition of the medicament in the step 3), reagents for luciferase assay (Bright-Glo™ Luciferase Assay System, Promega Corporation) were used and the luciferase activity was measured according to the manufacturer's protocol. […] After standing at rest for two minutes, 70 μl thereof were subjected to the measurement of the absorbance of luciferase.

FLG monomer = FLG monomer in FLG gene mutant mice (flaky tail mice), Western blotting (Example 13); assay type: in vivo, mouse; conditions: 1 μM 10 μl/ear intradermally, ear epidermis after 8 days
Protocol: In this example, the expression-increasing effect of Compound 1 (N-quinolylbenzamide derivative) on FLG monomer was confirmed by using FLG gene homozygous or heterozygous mutant mouse (Jackson Laboratory, flaky tail mice). The expression of the FLG protein was confirmed by Western blotting.
1) Compound 1 (1 μM) dissolved in ultrapure water (milliQ, EMD Millipore) was injected intradermally to left and right ears of an FLG homozygous or heterozygous mutant mouse (10 μl/ear). As a control, ultrapure water (milliQ, EMD Millipore) was injected intradermally in the same manner.
2) After 3 days, Compound 1 or ultrapure water was further injected intradermally in the same manner.
3) After 8 days, ears of each mouse were cut under anesthesia, the skin of the cut ear was peeled off by pinching cartilage, and the skin on the dermal side was soaked in PBS containing 20 mM EDTA at 37° C. for 30 minutes. Next, the epidermis of the ear was peeled off and […] of Lysis buffer (0.1 M Tris-HCl (pH 9.0), 6 M Urea, 1% 2-mercapto-ethanol, 1% SDS, 1 mM EDTA, and Protease inhibitor cocktail) were added to the epidermis, and the epidermis was homogenized with an electrically powered pestle in the same manner as in the step 4) of Example 11 to prepare a sample. The sample was subjected to electrophoresis, and then to western blotting to confirm the expression of FLG monomer. […]

SMILES	transcription activity on FLG promoter (FLG promoter)	production of FLG monomer (FLG monomer; FLG heterozygous mutant mouse)	production of FLG monomer (FLG monomer; FLG homozygous mutant mouse)
O=C(CCCCCN1C(=O)c2cccc3cccc(c23)C1=O)NO [Comparative Compound 2, 6-(1,3-Dioxo-1H,3H-benzo[de]isoquinolin-2-yl)hexanoic acid hydroxyamide, reference compound]	the transcription activity on FLG promoter was observed	–	–
CCc1ccc(OCc2ccccc2C(=O)Nc2ccc3nc(C)cc(N)c3c2)cc1.Cl [Compound 1, N-(4-Amino-2-methyl-6-quinolyl)-2-[(4-ethylphenoxy)methyl]benzamide hydrochloride]	had the transcription activity on FLG promoter	production of the FLG monomer caused by Compound 1 was confirmed	production of the FLG monomer was not observed
